# Results as given in patent US20220196659A1, “METHOD FOR DETERMINING EFFICACY” (LDN Pharma Limited, priority 2019, published 2022).
# How the values were obtained:
# [1] = test system: CD3+/CD8+ cells (killer T-cells); assay: CD3+ activation: CD69 expression of PBMCs cultured with LDN or NTX (flow cytometry); format: cell-based; settings: 48 h culture of PBMCs
# Experimental: Peripheral-blood mononuclear cells were isolated from whole blood or from the residue product of leucoreduction of whole blood from pathologically healthy donors using Histopaque-1077. The mononuclear fraction was harvested and red blood cell contamination removed by incubation in hypotonic ammonium chloride. Cells were washed in phosphate buffered saline (PBS) and platelet contamination removed by centrifugation at 200 g for 10 min, re-suspended at a concentration of 1×10^6 ml in RPMI-1640 culture medium. […] Peripheral-blood mononuclear cells were washed twice in wash buffer (PBS containing 1% (v/v) FBS and 0.09% (v/v) NaN3), and stained for 30 min at 4° C. with the relevant and stated antibodies for assessment of immune cell profile. Cells were washed in wash buffer and fixed in 4% paraformaldehyde for 20 min at 4° C. Expressions of the surface markers were analysed using a BD Bioscience LSR II flow cytometer with dedicated proprietary software.
# pERK = assay: PD analysis: Western blotting of PBMCs from normal volunteers after a single naltrexone tablet; format: in vivo, human; settings: Western blot
# Experimental: There were 5 treatment cohorts with 8 normal volunteers in each cohort. […] PBMCs were harvested at 0 and 48 h by ficoll extraction and lysed in cell lysis buffer. Western blotting was then performed on the samples, and pERK, tERK, BAX and p21 measured.
smiles,measurement,setting,value
"O=C1CC[C@@]2(O)[C@H]3Cc4ccc(O)c5c4[C@@]2(CCN3CC2CC2)[C@H]1O5 [naltrexone, morphinan-6-one,17-(cyclopropylmethyl)-4,5-epoxy-3,14-dihydroxy-(5+)]",CD69 expression in CD3+/CD8+ cells,[1]; 10 nM naltrexone (LDN),increased
same,CD69 expression in CD3+/CD8+ cells,[1]; 10 uM naltrexone (NTX),did not increase
same,level of pERK expression at 48 h compared to 0 h,pERK; single dose 1 mg tablet,decreased
same,level of pERK expression at 48 h compared to 0 h,pERK; single dose 3 mg tablet,increased
same,level of pERK expression at 48 h compared to 0 h,pERK; single dose 4.5 mg tablet,decreased
same,level of pERK expression at 48 h compared to 0 h,pERK; single dose 6 mg tablet,decreased
same,level of pERK expression at 48 h compared to 0 h,pERK; single dose 10 mg tablet,decreased
